In PubChem BioAssay (NCI):
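Growth conditions: 96-well plates. Treatment: test compound, 48 hours, 5 concentrations. Analysis: linear interpolation between bracketing concentrations; unreached endpoints set to highest concentration. At the GI50, growth is halved. TGI: total growth inhibition.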

Assays:
Test in all cases: growth of human tumour cells (NCI), 48 h
[1] = test system: A549 NSCLC
[2] = test system: CAKI-1 renal
[3] = test system: CCRF-CEM leukemia
[4] = test system: HCC-2998 colon
[5] = test system: HCT-15 colon
[6] = test system: HOP-62 NSCLC
[7] = test system: MOLT-4 leukemia
[8] = test system: NCI-H460 lung
[9] = test system: SW-620 colon
[10] = test system: UO-31 renal

Row | Compound | TGI [1] [µM] | TGI [2] [µM] | TGI [3] [µM] | TGI [4] [µM] | TGI [5] [µM] | TGI [6] [µM] | TGI [7] [µM] | TGI [8] [µM] | TGI [9] [µM] | TGI [10] [µM] | GI50 [1] [µM] | GI50 [2] [µM] | GI50 [4] [µM] | GI50 [5] [µM] | GI50 [6] [µM] | GI50 [8] [µM] | GI50 [9] [µM] | GI50 [10] [µM]
1 | Cn1c2ccccc2c2ccc3c(c21)C(=O)c1ccc2c4ccccc4n(C)c2c1C3=O | > 100 | > 100 | > 100 | > 100 | > 100 | > 100 | > 100 | > 100 | > 100 | > 100 | – | – | – | – | – | – | – | –
2 | COC(=O)CC(=O)OSc1ccccc1 | 77.3 | – | > 100 | 95 | – | 53.4 | > 100 | > 100 | 38.4 | 24.7 | – | – | – | – | – | – | – | –
3 | CC(C)NC(=O)OCc1c(COC(=O)NC(C)C)n(C)c2c1ccc1sccc12 | > 54.2 | 50.1 | > 100 | 30.3 | > 52.3 | 46.4 | > 86.1 | 27.2 | > 100 | 68.7 | – | – | – | – | – | – | – | –
4 | CC(C)C(Br)CCC1=CCC(Br)(Br)C1 (stereo not drawn) | 33.8 | 33.7 | > 100 | 28.1 | – | 30.8 | > 100 | 31.7 | 12.2 | 21.9 | – | – | – | – | – | – | – | –
5 | NS(=O)(=O)c1nnc(NC(=O)N(c2ccccc2)c2ccccc2)s1 | > 100 | > 100 | > 100 | – | > 100 | 77.3 | > 100 | – | > 100 | > 100 | – | – | – | – | – | – | – | –
6 | CN(C)c1nc(Oc2nc(N(C)C)nc(N(C)C)n2)nc(N(C)C)n1 | > 100 | > 100 | > 100 | > 100 | > 100 | – | > 100 | > 100 | > 100 | > 100 | – | – | – | – | – | – | – | –
7 | CC(=O)c1ccc(Oc2c3ccccc3nc3ccccc23)cc1 | 31.7 | 17.3 | 8.43 | 24 | 17.5 | 29.5 | – | 31.9 | 20.5 | 13.2 | – | – | – | – | – | – | – | –
8 | O=C(/C=C/c1ccc(Cl)cc1)Oc1ccc(C=C2CCC/C(=C\c3ccc(OC(=O)/C=C/c4ccc(Cl)cc4)cc3)C2=O)cc1 | > 100 | > 100 | – | > 100 | > 100 | > 100 | > 100 | > 100 | > 100 | > 100 | – | – | – | – | – | – | – | –
9 | Cc1nc(N)c(N2CCN(C#N)CC2)c(=O)[nH]1 | > 100 | – | > 100 | > 100 | > 100 | > 100 | > 100 | > 100 | > 100 | > 100 | – | – | – | – | – | – | – | –
10 | CSCC[C@@H](NC(=O)[C@H](CC(C)C)NC(=O)C(Cc1cnc[nH]1)NC(=O)CNC(=O)[C@@H](NC(=O)[C@H](C)NC(=O)[C@H](Cc1c[nH]c2ccccc12)NC(=O)[C@H](CCC(N)=O)NC(=O)[C@@H](N)CC(N)=O)C(C)C)C(N)=O (stereo partly drawn) | > 100 | – | > 100 | > 100 | > 100 | > 100 | > 100 | > 100 | > 100 | > 100 | – | – | – | – | – | – | – | –
11 | CN(C)CCn1c(=O)c2ccc(NCCCN(C)CCCNc3ccc4c(=O)n(CCN(C)C)c(=O)n5c6ccc(O)cc6c(=O)c3c45)c3c(=O)c4cc(O)ccc4n(c1=O)c23 | 0.786 | 2.23 | 0.13 | 0.173 | 3.41 | 1.51 | < 0.0289 | 0.234 | – | 0.452 | – | – | – | – | – | – | – | –
12 | Cc1nnc2n(c1=O)CCCN2C | > 100 | – | > 100 | > 100 | > 100 | > 100 | > 100 | > 100 | > 100 | > 100 | – | – | – | – | – | – | – | –
13 | Cn1nc(-c2ccc(S(=O)(=O)/N=C(\NN)Nc3ccc(Cl)cc3)s2)cc1C(F)(F)F | 29.3 | 35.1 | – | – | 47.5 | 32.3 | 22.4 | 37.9 | 36.9 | 28 | – | – | – | – | – | – | – | –
14 | Nc1ncnc2c1nnn2C1C=CC(CP(=O)(O)O)C1 (stereo not drawn) | > 100 | – | – | > 100 | > 100 | > 100 | > 100 | > 100 | > 100 | > 100 | – | – | – | – | – | – | – | –
15 | Cc1ccc2c(c1C)C(=O)C1(Cc3cc4c(cc3C1=O)CCC4)C2 (stereo not drawn) | > 100 | > 100 | > 100 | > 100 | > 100 | – | > 100 | > 100 | > 100 | > 100 | – | – | – | – | – | – | – | –
16 | COc1ccc(C)cc1N1C(=O)C2ON(Cc3ccc(CC(N)=O)cc3)C(c3c4ccccc4c(Cl)c4ccccc34)C2C1=O (stereo not drawn) | > 100 | 76.5 | > 100 | – | 73.3 | 93.7 | > 100 | 36.6 | > 100 | 48 | – | – | – | – | – | – | – | –
17 | CC(C)Oc1cccc(N2C(n3ccnc3)=Nc3ccncc3S2(=O)=O)c1 | 37.2 | 28.3 | – | 31 | 32.7 | 33.6 | 14.8 | 37.4 | 40.1 | 38.3 | – | – | – | – | – | – | – | –
18 | OCc1cn(Cc2ccccc2)c2ccccc12 | > 100 | 1.64 | > 40.9 | – | 31.4 | > 100 | > 100 | 35.8 | > 100 | > 100 | – | – | – | – | – | – | – | –
19 | CCOC(=O)/C=C/c1nc(C#N)c(N)o1 | > 100 | > 100 | > 100 | – | > 100 | > 100 | > 100 | – | > 100 | > 100 | – | – | – | – | – | – | – | –
20 | COc1ccc2ccc3oc(=O)c(C)cc3c2c1 | > 100 | > 100 | > 100 | > 100 | – | > 100 | > 100 | > 100 | > 100 | > 100 | – | – | – | – | – | – | – | –
21 | CC1CC(N2CCOCC2)=Nc2ccccc2N1C (stereo not drawn) | > 100 | > 100 | > 100 | – | > 100 | > 100 | > 100 | > 100 | > 100 | > 100 | – | – | – | – | – | – | – | –
22 | O=C(c1ccco1)N(C(=O)N1CCCCC1)c1ccccc1 | – | > 100 | > 100 | – | > 100 | – | > 100 | – | > 100 | > 100 | – | – | – | – | – | – | – | –
23 | CCCCCCCCCCCCCCCCCCOc1ccccc1CC(=O)NCC[N+]1(C)CCOCC1 | 26.3 | 38.3 | – | 7.09 | 66.5 | 26.8 | – | 17.4 | 22.5 | 37.2 | 4.39 | 18.4 | 2.08 | 17.1 | 4.01 | 3.31 | 3.76 | 5.83
